Data taken from patent publication US20240182420A1, “MICROBIOCIDAL ISONICOTINIC AMIDE DERIVATIVES” (SYNGENTA CROP PROTECTION AG, priority 2021, published 2024).

Legend:
[1] = system: Botryotinia fuckeliana syn. Botrytis cinerea; assay: Botryotinia fuckeliana syn. Botrytis cinerea (gray mould), liquid culture growth inhibition; format: cell-based; conditions: PDB nutrient broth, 24° C., 72 hrs, photometric, vs untreated control
Procedure: (§1) Conidia of the fungus from cryogenic storage were directly mixed into nutrient broth (PDB potato dextrose broth). A DMSO solution of the test compounds was placed into a microtiter plate (96-well format) and the nutrient broth containing the fungal spores was added to it. The test plates were incubated at 24° C. and the inhibition of growth was determined photometrically after 72 hrs.

[2] = system: Botryotinia fuckeliana syn. Botrytis cinerea; assay: Botryotinia fuckeliana syn. Botrytis cinerea (grey mold on tomato), tomato plants; format: in vivo; conditions: tomato plants cv. Roter Gnom, inoculated two days after application, leaf area covered by disease 5-6 days after application
Procedure: 4-week old tomato plants cv. Roter Gnom are treated sprayed in a spray chamber with the formulated test compound diluted in water. The test plants are inoculated by spraying them with a spore suspension two days after application. The inoculated test plants are incubated at 20° C. and 95% rh in a greenhouse and the percentage leaf area covered by disease is assessed when an appropriate level of disease appears on untreated check plants (5-6 days after application).

[3] = system: Glomerella lagenarium syn Colletotrichum lagenarium; assay: Glomerella lagenarium syn. Colletotrichum lagenarium (anthracnose), liquid culture growth inhibition; format: cell-based; conditions: Colletotrichum orbiculare, PDB nutrient broth, 24° C., 72 hrs, 620 nm, vs untreated control
Procedure: as §1, with “hrs at 620 nm.” for “hrs.”

[4] = system: Monographella nivalis syn. Microdochium nivale, Fusarium nivale; assay: Monographella nivalis syn. Microdochium nivale (snow mould, foot rot), liquid culture growth inhibition; format: cell-based; conditions: PDB nutrient broth, 24° C., 72 hrs, 620 nm, vs untreated control
Procedure: as §1, with “hrs at 620 nm.” for “hrs.”

Sclerotinia sclerotiorum = Sclerotinia sclerotiorum (cottony rot, white mold), liquid culture growth inhibition; format: cell-based; conditions: PDB nutrient broth, 24° C., 72 hrs, 620 nm, vs untreated control
Procedure: as §1, with “Mycelial fragments” for “Conidia”, “fungus prepared” for “fungus”, “a fresh liquid culture” for “cryogenic storage”, “hrs at 620 nm.” for “hrs.”

Alternaria solani = Alternaria solani (early blight of tomato), tomato leaf disks, preventive; format: in vivo; conditions: foliar, 96 h, assessed 4 dpi, vs untreated control
Procedure: Tomato leaf disks are placed on water agar in multiwell plates (24-well format) and sprayed with test solutions. After drying, the leaf disks are inoculated with a spore suspension of the fungus. After appropriate incubation the activity of a compound is assessed 4 dpi (days post inoculation) as preventive fungicidal activity.

[5] = system: Phaeosphaeria nodorum syn. Septoria nodorum; assay: Phaeosphaeria nodorum syn. Septoria nodorum (glume blotch of wheat), wheat leaf segments, preventive; format: in vivo; conditions: Parastagonospora nodorum, foliar, 96 h, assessed 4 dpi, vs untreated control
Procedure: (§2) Wheat leaf segments are placed on agar in multiwell plates (24-well format) and sprayed with test solutions. After drying, the leaf disks are inoculated with a spore suspension of the fungus. After appropriate incubation the activity of a compound is assessed 4 dpi (days after inoculation) as preventive fungicidal activity.
The following compounds from Table T1 gave at least 80% control of Phaeosphaeria nodorum at 200 ppm when compared to untreated control under the same conditions, which sowed extensive disease development: • 1.1, 1.3, 1.7, 1.14, 1.39, 1.41, 1.86, 1.87, 1.92, 1.94, 1.95.

Pyrenophora teres = Pyrenophora teres (net blotch of barley), barley leaf segments, preventive; format: in vivo; conditions: foliar, 96 h, assessed 4 dpi, vs untreated control
Procedure: as §2, with “Barley” for “Wheat”, “incubation,” for “incubation”

Row | Structure (SMILES) | inhibition of growth at 20 ppm [1] [%] | pest or weed control at 200 ppm [2] [%] | inhibition of growth at 20 ppm [3] [%] | inhibition of growth at 20 ppm [4] [%] | inhibition of growth at 20 ppm (Sclerotinia sclerotiorum) [%] | pest or weed control at 200 ppm (Alternaria solani) [%] | pest or weed control at 200 ppm [5] [%] | pest or weed control at 200 ppm (Pyrenophora teres) [%]
1 | CCc1cncc(Oc2cccc(C3CC3)c2)c1C(=O)NCC(F)c1ccc(Cl)cc1Cl (stereo not shown) [Compound 1.79, 3-(3-cyclopropyl-phenoxy)-N-[2-(2,4-dichlorophenyl)-2-fluoro-ethyl]-5-ethyl-pyridine-4-carboxamide] | ≥ 80 | ≥ 50 | ≥ 80 | ≥ 80 | ≥ 80 | – | – | –
2 | O=C(NCC(F)c1ccc(Cl)cc1Cl)c1cc(Br)ncc1Oc1cccc(C2CC2)c1 (stereo not shown) [Compound 1.5, 2-bromo-5-(3-cyclopropyl-phenoxy)-N-[2-(2,4-dichlorophenyl)-2-fluoro-ethyl]pyridine-4-carboxamide] | ≥ 80 | ≥ 50 | ≥ 80 | – | ≥ 80 | – | – | –
3 | O=C(NC[C@H](F)c1ccc(Cl)cc1Cl)c1c(Br)cncc1Oc1cccc(C2CC2)c1 [Compound 1.95, 3-bromo-5-(3-cyclopropyl-phenoxy)-N-[(2R)-2-(2,4-dichlorophenyl)-2-fluoro-ethyl]pyridine-4-carboxamide] | ≥ 80 | – | ≥ 80 | ≥ 80 | ≥ 80 | ≥ 80 | ≥ 80 | –
4 | COc1cc(C(=O)NCC(F)c2ccc(Cl)cc2Cl)c(Oc2cccc(C3CC3)c2)cn1 (stereo not shown) [Compound 1.98, 5-(3-cyclopropyl-phenoxy)-N-[2-(2,4-dichlorophenyl)-2-fluoro-ethyl]-2-methoxy-pyridine-4-carboxamide] | ≥ 80 | – | ≥ 80 | – | – | ≥ 80 | – | –
5 | CCc1cc(C(=O)NCC(F)c2ccc(Cl)cc2Cl)c(Oc2cccc(C3CC3)c2)cn1 (stereo not shown) [Compound 1.81, 5-(3-cyclopropyl-phenoxy)-N-[2-(2,4-dichlorophenyl)-2-fluoro-ethyl]-2-ethyl-pyridine-4-carboxamide] | ≥ 80 | ≥ 50 | ≥ 80 | ≥ 80 | ≥ 80 | – | – | –
6 | Cc1cncc(Oc2cccc(C3CC3)c2)c1C(=O)NC[C@H](F)c1ccc(Cl)cc1Cl [Compound 1.94, 3-(3-cyclopropyl-phenoxy)-N-[(2R)-2-(2,4-dichlorophenyl)-2-fluoro-ethyl]-5-methyl-pyridine-4-carboxamide] | ≥ 80 | – | ≥ 80 | ≥ 80 | ≥ 80 | ≥ 80 | ≥ 80 | ≥ 80
7 | C#CC(C)(C)Oc1cncc(Oc2cccc(C3CC3)c2)c1C(=O)NCC(F)c1ccc(Cl)cc1Cl (stereo not shown) [Compound 1.92, 3-(3-cyclopropyl-phenoxy)-N-[2-(2,4-dichlorophenyl)-2-fluoro-ethyl]-5-(1,1-dimethylprop-2-ynoxy)pyridine-4-carboxamide] | ≥ 80 | – | ≥ 80 | ≥ 80 | ≥ 80 | – | ≥ 80 | –
8 | Cc1cncc(Oc2cccc(C3CC3)c2)c1C(=O)NCC(F)c1ccc(Cl)cc1Cl (stereo not shown) [Compound 1.7, 3-(3-cyclopropyl-phenoxy)-N-[2-(2,4-dichlorophenyl)-2-fluoro-ethyl]-5-methyl-pyridine-4-carboxamide] | ≥ 80 | ≥ 50 | ≥ 80 | – | ≥ 80 | ≥ 80 | ≥ 80 | –
9 | O=C(NCC(F)c1ccc(Cl)cc1Cl)c1c(O)cncc1Oc1cccc(C2CC2)c1 (stereo not shown) [Compound 1.96, 3-(3-cyclopropyl-phenoxy)-N-[2-(2,4-dichlorophenyl)-2-fluoro-ethyl]-5-hydroxy-pyridine-4-carboxamide] | ≥ 80 | – | ≥ 80 | ≥ 80 | ≥ 80 | – | – | –
10 | Cc1cccc(Oc2cnc(Cl)cc2C(=O)NCC(F)c2ccc(Cl)cc2Cl)c1 (stereo not shown) [Compound 1.3, 2-chloro-N-[2-(2,4-dichlorophenyl)-2-fluoro-ethyl]-5-(3-methylphenoxy) pyridine-4-carboxamide] | ≥ 80 | ≥ 50 | ≥ 80 | – | ≥ 80 | – | ≥ 80 | ≥ 80
11 | C#CC(C)(C)Oc1cncc(Oc2cccc(C3CC3)c2)c1C(=O)NCCc1ccc(Cl)cc1Cl [Compound 1.88, 3-(3-cyclopropyl-phenoxy)-N-[2-(2,4-dichlorophenyl)ethyl]-5-(1,1-dimethylprop-2-ynoxy)pyridine-4-carboxamide] | ≥ 80 | ≥ 50 | ≥ 80 | ≥ 80 | ≥ 80 | – | – | ≥ 80
12 | Cc1cccc(Oc2cnc(C)cc2C(=O)NCCc2ccc(Cl)cc2Cl)c1 [Compound 1.2, N-[2-(2,4-dichlorophenyl)ethyl]-2-methyl-5-(3-methylphenoxy) pyridine-4-carboxamide] | ≥ 80 | – | ≥ 80 | – | ≥ 80 | – | – | –
13 | O=C(NCC(F)c1ccc(Cl)cc1Cl)c1c(Br)cncc1Oc1cccc(C2CC2)c1 (stereo not shown) [Compound 1.8, 3-bromo-5-(3-cyclopropyl-phenoxy)-N-[2-(2,4-dichlorophenyl)-2-fluoro-ethyl]pyridine-4-carboxamide] | ≥ 80 | ≥ 50 | ≥ 80 | – | ≥ 80 | – | – | –
14 | O=C(NCC(F)c1ccc(Cl)cc1Cl)c1cc(Cl)ncc1Oc1cccc(C2CC2)c1F (stereo not shown) [Compound 1.70, 2-chloro-5-(3-cyclopropyl-2-fluoro-phenoxy)-N-[2-(2,4-dichlorophenyl)-2-fluoro-ethyl]pyridine-4-carboxamide] | ≥ 80 | ≥ 50 | – | ≥ 80 | ≥ 80 | – | – | –
15 | C=C(C)COc1cncc(Oc2cccc(C3CC3)c2)c1C(=O)NCC(F)c1ccc(Cl)cc1Cl (stereo not shown) [Compound 1.85, 3-(3-cyclopropyl-phenoxy)-N-[2-(2,4-dichlorophenyl)-2-fluoro-ethyl]-5-(2-methylallyloxy) pyridine-4-carboxamide] | ≥ 80 | ≥ 50 | ≥ 80 | ≥ 80 | ≥ 80 | – | – | ≥ 80
16 | Cc1cc(C(=O)NCCc2ccc(Cl)cc2Cl)c(Oc2cccc(C3CC3)c2)cn1 [Compound 1.13, 5-(3-cyclopropyl-phenoxy)-N-[2-(2,4-dichlorophenyl)ethyl]-2-methyl-pyridine-4-carboxamide] | ≥ 80 | ≥ 50 | ≥ 80 | ≥ 80 | ≥ 80 | – | – | –
17 | C#Cc1cc(C(=O)NCC(F)c2ccc(Cl)cc2Cl)c(Oc2cccc(C3CC3)c2)cn1 (stereo not shown) [Compound 1.86, 5-(3-cyclopropyl-phenoxy)-N-[2-(2,4-dichlorophenyl)-2-fluoro-ethyl]-2-ethynyl-pyridine-4-carboxamide] | ≥ 80 | – | ≥ 80 | ≥ 80 | – | – | ≥ 80 | –
18 | N#Cc1cc(C(=O)NCC(F)c2ccc(Cl)cc2Cl)c(Oc2cccc(C3CC3)c2)cn1 (stereo not shown) [Compound 1.20, 2-cyano-5-(3-cyclopropyl-phenoxy)-N-[2-(2,4-dichlorophenyl) 2-fluoro-ethyl]pyridine-4-carboxamide] | ≥ 80 | ≥ 50 | ≥ 80 | – | ≥ 80 | ≥ 80 | – | –
